Measured values: ChEMBL document CHEMBL4507264, “Data for DCP probe BAY-7598” (2021)

What was measured:
[1] = system: Tyrosine-protein kinase ABL1 (Homo sapiens), P00519 [H396P]; settings: Compound concentration 1000.0 nM
[2] = system: Tyrosine-protein kinase ABL1 (Homo sapiens), P00519 [T315I]; settings: Compound concentration 1000.0 nM
[3] = molecular target: Activin receptor type-1-like (Homo sapiens) (UniProt P37023); settings: Compound concentration 1000.0 nM
[4] = molecular target: Calcium/calmodulin-dependent protein kinase type 1G (Homo sapiens) (UniProt Q96NX5); settings: Compound concentration 1000.0 nM
[5] = molecular target: Cyclin-dependent kinase-like 5 (Homo sapiens) (UniProt O76039); settings: Compound concentration 1000.0 nM
[6] = molecular target: Dual specificity protein kinase CLK2 (Homo sapiens) (UniProt P49760); settings: Compound concentration 1000.0 nM
[7] = molecular target: Serine/threonine-protein kinase DCLK3 (Homo sapiens) (UniProt Q9C098); settings: Compound concentration 1000.0 nM
[8] = molecular target: Dual specificity tyrosine-phosphorylation-regulated kinase 1A (Homo sapiens) (UniProt Q13627); settings: Compound concentration 1000.0 nM
[9] = molecular target: Eukaryotic translation initiation factor 2-alpha kinase 1 (Homo sapiens) (UniProt Q9BQI3); settings: Compound concentration 1000.0 nM
[10] = molecular target: Ephrin type-A receptor 4 (Homo sapiens) (UniProt P54764); settings: Compound concentration 1000.0 nM
[11] = molecular target: Ephrin type-B receptor 2 (Homo sapiens) (UniProt P29323); settings: Compound concentration 1000.0 nM
[12] = molecular target: Mitogen-activated protein kinase 4 (Homo sapiens) (UniProt P31152); settings: Compound concentration 1000.0 nM
[13] = system: Receptor-type tyrosine-protein kinase FLT3 (Homo sapiens), P36888 [K663Q]; settings: Compound concentration 1000.0 nM
[14] = molecular target: Rhodopsin kinase GRK7 (Homo sapiens) (UniProt Q8WTQ7); settings: Compound concentration 1000.0 nM
[15] = molecular target: Glycogen synthase kinase-3 alpha (Homo sapiens) (UniProt P49840); settings: Compound concentration 1000.0 nM
[16] = molecular target: Homeodomain-interacting protein kinase 4 (Homo sapiens) (UniProt Q8NE63); settings: Compound concentration 1000.0 nM
[17] = molecular target: Insulin receptor (Homo sapiens) (UniProt P06213); settings: Compound concentration 1000.0 nM
[18] = molecular target: Tyrosine-protein kinase ITK/TSK (Homo sapiens) (UniProt Q08881); settings: Compound concentration 1000.0 nM
[19] = molecular target: Serine/threonine-protein kinase 10 (Homo sapiens) (UniProt O94804); settings: Compound concentration 1000.0 nM
[20] = molecular target: Dual specificity mitogen-activated protein kinase kinase 1 (Homo sapiens) (UniProt Q02750); settings: Compound concentration 1000.0 nM
[21] = molecular target: Hepatocyte growth factor receptor (Homo sapiens) (UniProt P08581); settings: Compound concentration 1000.0 nM
[22] = molecular target: Myosin-IIIb (Homo sapiens) (UniProt Q8WXR4); settings: Compound concentration 1000.0 nM
[23] = molecular target: Serine/threonine-protein kinase Nek2 (Homo sapiens) (UniProt P51955); settings: Compound concentration 1000.0 nM
[24] = molecular target: Serine/threonine-protein kinase Nek3 (Homo sapiens) (UniProt P51956); settings: Compound concentration 1000.0 nM
[25] = molecular target: Serine/threonine-protein kinase Nek4 (Homo sapiens) (UniProt P51957); settings: Compound concentration 1000.0 nM
[26] = molecular target: Mitogen-activated protein kinase 12 (Homo sapiens) (UniProt P53778); settings: Compound concentration 1000.0 nM
[27] = molecular target: Serine/threonine-protein kinase PAK 1 (Homo sapiens) (UniProt Q13153); settings: Compound concentration 1000.0 nM
[28] = molecular target: Cyclin-dependent kinase 14 (Homo sapiens) (UniProt O94921); settings: Compound concentration 1000.0 nM
[29] = molecular target: Phosphorylase b kinase gamma catalytic chain, skeletal muscle/heart isoform (Homo sapiens) (UniProt Q16816); settings: Compound concentration 1000.0 nM
[30] = molecular target: Phosphatidylinositol 4-phosphate 3-kinase C2 domain-containing subunit beta (Homo sapiens) (UniProt O00750); settings: Compound concentration 1000.0 nM
[31] = molecular target: Phosphatidylinositol 4-phosphate 5-kinase type-1 gamma (Homo sapiens) (UniProt O60331); settings: Compound concentration 1000.0 nM
[32] = molecular target: cAMP-dependent protein kinase catalytic subunit beta (Homo sapiens) (UniProt P22694); settings: Compound concentration 1000.0 nM
[33] = molecular target: Protein kinase C epsilon type (Homo sapiens) (UniProt Q02156); settings: Compound concentration 1000.0 nM
[34] = molecular target: Serine/threonine-protein kinase SIK3 (Homo sapiens) (UniProt Q9Y2K2); settings: Compound concentration 1000.0 nM
[35] = molecular target: RAF proto-oncogene serine/threonine-protein kinase (Homo sapiens) (UniProt P04049); settings: Compound concentration 1000.0 nM
[36] = molecular target: Dual serine/threonine and tyrosine protein kinase (Homo sapiens) (UniProt Q6XUX3); settings: Compound concentration 1000.0 nM
[37] = molecular target: Ribosomal protein S6 kinase alpha-5 (Homo sapiens) (UniProt O75582); settings: Compound concentration 1000.0 nM
[38] = molecular target: Ribosomal protein S6 kinase beta-1 (Homo sapiens) (UniProt P23443); settings: Compound concentration 1000.0 nM
[39] = molecular target: SNF-related serine/threonine-protein kinase (Homo sapiens) (UniProt Q9NRH2); settings: Compound concentration 1000.0 nM
[40] = molecular target: Serine/threonine-protein kinase 33 (Homo sapiens) (UniProt Q9BYT3); settings: Compound concentration 1000.0 nM
[41] = molecular target: Mitogen-activated protein kinase kinase kinase 7 (Homo sapiens) (UniProt O43318); settings: Compound concentration 1000.0 nM
[42] = molecular target: Serine/threonine-protein kinase WNK4 (Homo sapiens) (UniProt Q96J92); settings: Compound concentration 1000.0 nM
[43] = molecular target: 5-hydroxytryptamine receptor 1E (Homo sapiens) (UniProt P28566); settings: Compound concentration 10.0 uM
[44] = molecular target: D(3) dopamine receptor (Homo sapiens) (UniProt P35462); settings: Compound concentration 10.0 uM
[45] = molecular target: Sodium-dependent serotonin transporter (Homo sapiens) (UniProt P31645); settings: Compound concentration 10.0 uM
Chain of Sodium-dependent serotonin transporter (Homo sapiens) (P31645 whole entry, looked up): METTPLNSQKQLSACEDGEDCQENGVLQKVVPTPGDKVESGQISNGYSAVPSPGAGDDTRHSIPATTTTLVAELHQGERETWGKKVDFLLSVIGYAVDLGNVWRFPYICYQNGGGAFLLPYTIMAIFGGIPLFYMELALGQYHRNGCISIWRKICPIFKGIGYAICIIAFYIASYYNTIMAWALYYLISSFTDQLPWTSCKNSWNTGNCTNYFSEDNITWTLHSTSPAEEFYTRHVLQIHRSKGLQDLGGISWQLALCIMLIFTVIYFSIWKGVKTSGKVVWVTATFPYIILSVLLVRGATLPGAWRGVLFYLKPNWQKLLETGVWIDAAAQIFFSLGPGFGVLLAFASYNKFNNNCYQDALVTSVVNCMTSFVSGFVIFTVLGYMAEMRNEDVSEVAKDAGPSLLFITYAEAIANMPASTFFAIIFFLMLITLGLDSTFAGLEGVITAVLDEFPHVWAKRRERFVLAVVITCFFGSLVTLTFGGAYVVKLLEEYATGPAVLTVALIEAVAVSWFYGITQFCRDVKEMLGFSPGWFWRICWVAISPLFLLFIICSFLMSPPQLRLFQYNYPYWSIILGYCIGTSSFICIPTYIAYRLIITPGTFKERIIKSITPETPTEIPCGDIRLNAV

Chain of Cyclin-dependent kinase-like 5 (Homo sapiens) (O76039 whole entry): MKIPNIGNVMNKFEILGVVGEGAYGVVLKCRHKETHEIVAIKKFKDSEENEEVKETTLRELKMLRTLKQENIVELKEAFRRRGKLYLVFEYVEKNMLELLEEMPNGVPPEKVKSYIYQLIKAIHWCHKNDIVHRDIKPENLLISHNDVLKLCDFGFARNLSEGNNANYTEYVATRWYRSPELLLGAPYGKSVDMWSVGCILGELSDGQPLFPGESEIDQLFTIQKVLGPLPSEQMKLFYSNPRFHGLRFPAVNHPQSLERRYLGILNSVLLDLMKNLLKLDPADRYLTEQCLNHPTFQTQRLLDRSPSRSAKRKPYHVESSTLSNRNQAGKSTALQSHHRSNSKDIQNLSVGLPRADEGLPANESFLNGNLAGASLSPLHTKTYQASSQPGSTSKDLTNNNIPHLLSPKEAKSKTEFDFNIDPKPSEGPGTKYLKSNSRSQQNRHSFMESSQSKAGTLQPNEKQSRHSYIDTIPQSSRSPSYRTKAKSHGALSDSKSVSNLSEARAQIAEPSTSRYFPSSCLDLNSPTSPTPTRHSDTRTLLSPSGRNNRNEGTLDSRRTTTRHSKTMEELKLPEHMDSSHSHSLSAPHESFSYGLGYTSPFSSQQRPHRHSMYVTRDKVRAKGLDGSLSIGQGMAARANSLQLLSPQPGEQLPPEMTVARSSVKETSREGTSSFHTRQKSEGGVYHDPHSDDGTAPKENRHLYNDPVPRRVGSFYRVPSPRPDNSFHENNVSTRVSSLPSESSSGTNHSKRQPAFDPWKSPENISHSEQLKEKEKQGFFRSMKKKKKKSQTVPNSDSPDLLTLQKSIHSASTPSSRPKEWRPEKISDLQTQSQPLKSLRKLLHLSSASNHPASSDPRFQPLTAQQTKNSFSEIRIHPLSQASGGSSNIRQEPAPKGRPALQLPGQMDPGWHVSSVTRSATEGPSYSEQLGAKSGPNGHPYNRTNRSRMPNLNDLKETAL
Chain of Serine/threonine-protein kinase Nek3 (Homo sapiens) (P51956 whole entry): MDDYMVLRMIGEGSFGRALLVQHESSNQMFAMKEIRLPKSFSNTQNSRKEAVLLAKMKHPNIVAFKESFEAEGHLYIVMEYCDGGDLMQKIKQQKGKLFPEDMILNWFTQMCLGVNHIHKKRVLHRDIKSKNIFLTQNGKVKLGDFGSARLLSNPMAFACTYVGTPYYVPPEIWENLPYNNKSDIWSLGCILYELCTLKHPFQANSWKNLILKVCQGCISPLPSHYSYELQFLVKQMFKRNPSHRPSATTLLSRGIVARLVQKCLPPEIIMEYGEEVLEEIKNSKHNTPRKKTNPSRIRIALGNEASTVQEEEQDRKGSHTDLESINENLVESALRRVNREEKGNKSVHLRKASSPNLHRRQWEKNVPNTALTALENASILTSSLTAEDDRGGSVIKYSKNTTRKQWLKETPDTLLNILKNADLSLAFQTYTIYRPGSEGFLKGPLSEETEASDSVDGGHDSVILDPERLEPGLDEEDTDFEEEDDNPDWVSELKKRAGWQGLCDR
Chain of Hepatocyte growth factor receptor (Homo sapiens) (P08581 whole entry): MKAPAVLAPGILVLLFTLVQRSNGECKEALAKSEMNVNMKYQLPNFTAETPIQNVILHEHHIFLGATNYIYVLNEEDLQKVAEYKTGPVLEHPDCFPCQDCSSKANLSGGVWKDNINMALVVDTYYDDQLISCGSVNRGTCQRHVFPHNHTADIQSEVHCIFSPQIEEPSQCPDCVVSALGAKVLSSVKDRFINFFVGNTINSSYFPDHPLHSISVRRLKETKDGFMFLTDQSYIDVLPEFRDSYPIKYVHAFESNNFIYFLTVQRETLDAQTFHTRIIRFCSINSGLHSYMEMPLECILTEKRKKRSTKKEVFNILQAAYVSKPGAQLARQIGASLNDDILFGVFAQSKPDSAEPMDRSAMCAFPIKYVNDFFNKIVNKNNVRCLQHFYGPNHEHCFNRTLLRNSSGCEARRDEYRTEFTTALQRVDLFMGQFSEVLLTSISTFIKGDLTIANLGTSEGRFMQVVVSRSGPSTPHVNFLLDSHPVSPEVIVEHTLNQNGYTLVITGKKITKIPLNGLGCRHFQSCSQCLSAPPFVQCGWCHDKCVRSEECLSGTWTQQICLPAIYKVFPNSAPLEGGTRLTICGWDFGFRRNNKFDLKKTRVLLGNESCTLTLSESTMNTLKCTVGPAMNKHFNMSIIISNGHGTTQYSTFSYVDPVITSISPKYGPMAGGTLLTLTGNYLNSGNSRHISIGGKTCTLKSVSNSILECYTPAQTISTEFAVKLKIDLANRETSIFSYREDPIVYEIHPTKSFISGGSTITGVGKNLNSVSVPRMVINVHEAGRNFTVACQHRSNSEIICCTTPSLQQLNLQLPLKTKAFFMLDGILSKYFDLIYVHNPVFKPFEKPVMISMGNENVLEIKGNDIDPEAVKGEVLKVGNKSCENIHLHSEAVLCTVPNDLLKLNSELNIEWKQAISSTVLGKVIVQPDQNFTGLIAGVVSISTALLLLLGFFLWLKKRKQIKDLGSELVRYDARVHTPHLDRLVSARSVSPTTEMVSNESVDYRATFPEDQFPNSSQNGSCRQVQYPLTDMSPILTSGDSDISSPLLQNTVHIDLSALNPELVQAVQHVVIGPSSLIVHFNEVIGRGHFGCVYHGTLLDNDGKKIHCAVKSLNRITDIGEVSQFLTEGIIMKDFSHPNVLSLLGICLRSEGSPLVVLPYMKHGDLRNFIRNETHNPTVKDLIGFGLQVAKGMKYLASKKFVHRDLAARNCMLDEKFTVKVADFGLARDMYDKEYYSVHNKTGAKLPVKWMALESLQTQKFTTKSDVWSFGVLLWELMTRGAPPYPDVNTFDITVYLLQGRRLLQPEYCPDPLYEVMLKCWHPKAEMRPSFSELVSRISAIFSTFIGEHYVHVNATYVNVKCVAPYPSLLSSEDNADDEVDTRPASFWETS
Chain of RAF proto-oncogene serine/threonine-protein kinase (Homo sapiens) (P04049 whole entry): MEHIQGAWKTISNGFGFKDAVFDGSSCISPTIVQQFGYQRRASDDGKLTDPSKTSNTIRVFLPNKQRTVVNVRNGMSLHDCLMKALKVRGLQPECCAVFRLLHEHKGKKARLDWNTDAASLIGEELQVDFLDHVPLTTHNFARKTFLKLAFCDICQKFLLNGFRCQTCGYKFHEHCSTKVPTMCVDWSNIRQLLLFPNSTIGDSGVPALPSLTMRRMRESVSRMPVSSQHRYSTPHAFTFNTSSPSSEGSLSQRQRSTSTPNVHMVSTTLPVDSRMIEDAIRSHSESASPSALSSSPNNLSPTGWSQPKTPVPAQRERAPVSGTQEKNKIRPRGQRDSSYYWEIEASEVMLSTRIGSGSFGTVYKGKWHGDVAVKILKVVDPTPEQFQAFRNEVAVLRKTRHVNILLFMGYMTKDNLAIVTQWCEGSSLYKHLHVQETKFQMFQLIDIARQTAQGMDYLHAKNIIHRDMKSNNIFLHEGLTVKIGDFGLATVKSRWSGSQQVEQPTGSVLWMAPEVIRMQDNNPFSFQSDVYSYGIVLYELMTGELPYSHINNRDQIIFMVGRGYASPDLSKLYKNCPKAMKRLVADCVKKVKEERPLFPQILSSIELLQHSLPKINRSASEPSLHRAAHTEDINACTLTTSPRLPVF
Chain of Dual specificity mitogen-activated protein kinase kinase 1 (Homo sapiens) (Q02750 whole entry): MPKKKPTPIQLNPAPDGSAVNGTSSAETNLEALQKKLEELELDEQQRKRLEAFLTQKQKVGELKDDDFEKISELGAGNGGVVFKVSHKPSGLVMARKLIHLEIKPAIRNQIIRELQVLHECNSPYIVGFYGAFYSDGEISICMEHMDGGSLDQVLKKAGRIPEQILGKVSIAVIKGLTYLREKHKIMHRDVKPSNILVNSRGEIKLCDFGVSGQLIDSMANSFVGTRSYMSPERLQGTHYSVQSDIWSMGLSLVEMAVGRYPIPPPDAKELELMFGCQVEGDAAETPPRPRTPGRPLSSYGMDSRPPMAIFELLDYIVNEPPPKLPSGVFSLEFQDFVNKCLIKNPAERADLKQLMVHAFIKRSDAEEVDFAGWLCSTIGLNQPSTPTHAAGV
Chain of Phosphorylase b kinase gamma catalytic chain, skeletal muscle/heart isoform (Homo sapiens) (Q16816 whole entry, looked up, the tested form may be a part, canonical isoform): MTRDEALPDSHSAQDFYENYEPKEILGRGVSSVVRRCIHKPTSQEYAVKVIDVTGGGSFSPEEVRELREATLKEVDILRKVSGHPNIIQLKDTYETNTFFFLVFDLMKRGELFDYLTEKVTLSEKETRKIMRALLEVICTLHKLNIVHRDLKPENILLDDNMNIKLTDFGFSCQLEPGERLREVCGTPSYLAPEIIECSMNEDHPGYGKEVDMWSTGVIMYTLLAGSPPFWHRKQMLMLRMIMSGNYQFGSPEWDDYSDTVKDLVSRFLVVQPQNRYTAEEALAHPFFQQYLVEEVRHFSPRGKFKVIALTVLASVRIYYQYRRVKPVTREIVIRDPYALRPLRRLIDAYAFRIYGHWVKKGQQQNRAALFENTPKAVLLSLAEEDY

O=C(O)[C@@H]1[C@@H](Cn2nnc3ccccc3c2=O)CC[C@H]1C(=O)c1ccc(OCCC2CCOCC2)cc1 [BAY-694]
inactive: residual activity [1] 84% | residual activity [2] 100% | residual activity [3] 97% | residual activity [4] 100% | residual activity [5] 96% | residual activity [6] 100% | residual activity [7] 100% | residual activity [8] 94% | residual activity [9] 100% | residual activity [10] 92% | residual activity [11] 100% | residual activity [12] 100% | residual activity [13] 100% | residual activity [14] 100% | residual activity [15] 93% | residual activity [16] 100% | residual activity [17] 85% | residual activity [18] 87% | residual activity [19] 84% | residual activity [20] 81% | residual activity [21] 100% | residual activity [22] 90% | residual activity [23] 100% | residual activity [24] 83% | residual activity [25] 56% | residual activity [26] 100% | residual activity [27] 95% | residual activity [28] 100% | residual activity [29] 100% | residual activity [30] 100% | residual activity [31] 100% | residual activity [32] 100% | residual activity [33] 100% | residual activity [34] 84% | residual activity [35] 100% | residual activity [36] 84% | residual activity [37] 100% | residual activity [38] 100% | residual activity [39] 100% | residual activity [40] 69% | residual activity [41] 86% | residual activity [42] 75% | inhibition [43] 3.94% | inhibition [44] -4.94% | inhibition [45] 10.2%

O=C(O)[C@H]1[C@H](Cn2nnc3ccccc3c2=O)CC[C@@H]1C(=O)c1ccc(OCCC2CCOCC2)cc1 [BAY-7598]
inactive: residual activity [1] 100% | residual activity [2] 79% | residual activity [3] 85% | residual activity [4] 90% | residual activity [5] 85% | residual activity [6] 100% | residual activity [7] 98% | residual activity [8] 85% | residual activity [9] 78% | residual activity [10] 90% | residual activity [11] 100% | residual activity [12] 82% | residual activity [13] 100% | residual activity [14] 100% | residual activity [15] 74% | residual activity [16] 100% | residual activity [17] 78% | residual activity [18] 100% | residual activity [19] 100% | residual activity [20] 100% | residual activity [21] 94% | residual activity [22] 69% | residual activity [23] 100% | residual activity [24] 86% | residual activity [25] 84% | residual activity [26] 93% | residual activity [27] 83% | residual activity [28] 100% | residual activity [29] 74% | residual activity [30] 90% | residual activity [31] 100% | residual activity [32] 95% | residual activity [33] 100% | residual activity [34] 61% | residual activity [35] 91% | residual activity [36] 100% | residual activity [37] 100% | residual activity [38] 100% | residual activity [39] 95% | residual activity [40] 98% | residual activity [41] 100% | residual activity [42] 91% | inhibition [43] 7.37% | inhibition [44] 7.27% | inhibition [45] 13.9%
